# Measured values published in patent publication US20100305215A1, “DERMAL REGENERATION ENHANCER” (JAPAN SCIENCE AND TECHNOLOGY AGENCY, priority 2005, published 2010).
# Tested on: skin of colored guinea pigs having melanin pigment-producing cells
# Experiment: Dermal regeneration enhancing action of liquid crystal versus its constituting components on guinea pig skin (Example 4)
# Assay type: in vivo, guinea pigs (Weiser Maples)
# Settings: 30 mg on 2 cm×2 cm shaved back; each sample solely applied
# Experimental: Back of colored guinea pigs having melanin pigment-producing cells (Weiser Maples; six weeks age; male) was shaved, the shaved part was washed with lukewarm water and 30 mg of the above lyotropic liquid crystal was applied to an area of 2 cm×5 cm thereof. After 2 days from the application date under irradiation with any of UVA, UVB and UVA+UVB, skin of the part to which the lyotropic liquid crystal was applied was collected and the slice was fixed with formalin, embedded in paraffin and stained by a Fontana-Masson method where melanin pigment was stained out in black to evaluate the dermal regeneration enhancing action.
# Back of colored guinea pigs having melanin pigment-producing cells (Weiser Maples, five weeks age, male) was shaved, the shaved part was washed with lukewarm water, each 30 mg of the four kinds of samples of the lyotropic crystal of (A) of Example 1 and the constituting components thereof—surfactant, oil and polyhydric alcohol—was applied to an area of 2 cm×2 cm thereof and the dermal regeneration enhancing action was evaluated by the method mentioned in (A) of Example 1. Cross-sectional pictures of the skin to which each of the samples was applied are shown in FIG. 6 together with the cross-sectional picture of the skin to which nothing was applied.
row,Compound,dermal regeneration enhancing action
1,"CC(C)CCCC(C)CCCC(C)CCCCC(C)CCCC(C)CCCC(C)C (centres unmarked) [oil, squalane]",no dermal regeneration enhancing action was noted
2,"OCC(O)CO [polyhydric alcohol, glycerol]",no dermal regeneration enhancing action was noted
